According to ChEMBL document CHEMBL1147322, “X-ray crystal structure of acrovestone, a cytotoxic principle from Acronychia pedunculata” (1989):
Values after ≈ are worked out from the molar mass of the structure shown.

What was measured:
Type in all cases: functional
KB = test: Cytotoxicity against human KB cells at 0.5 ug/ml
A549 = test: Cytotoxicity against human A549 cells; details: read-out: ED50 (the source's name)
L1210 = test: Cytotoxicity against mouse L1210 cells; details: read-out: ED50 (the source's name)
P388 = test: Cytotoxicity against mouse P388 cells; details: read-out: ED50 (the source's name)

For `COc1c(CC=C(C)C)c(O)c([C@H](CC(C)C)c2c(O)c(CC=C(C)C)c(O)c(C(C)=O)c2O)c(O)c1C(C)=O` [ACROVESTONE], the inhibition at 0.5 µg/mL (KB) was 100%, the EC50 (A549) was 0.98 µg/mL (≈ 1.77 µM) and the EC50 (L1210) was 2.95 µg/mL (≈ 5.32 µM). It also gave an EC50 (P388) of 3.28 µg/mL (≈ 5.91 µM).
